# According to publication PMC4739506 (Nature chemistry, 2013):
# System: P. falciparum 3D7 parasites (schizonts)
# Experiment: YnMyr treatment of schizonts: morphology and life cycle progression
# Assay type: cell-based
# Settings: up to 50 μM, 5 h
smiles,measurement,value
"C#CCCCCCCCCCCCC(=O)O [YnMyr, tetradec-13-ynoic acid]",changes in morphology or life cycle progression,no changes were observed in morphology or life cycle progression
